Experimental data from patent US9622429B2, “Method for increasing plant biomass” (BioMass Booster, S.L., priority 2010, dated 2017).

What was measured:
Type in all cases: cell-based
[1] = system: Carrot (Daucus carota) calli; experiment: Callus growth (biomass increase) on medium containing adrenomedullin, carrot
Source text: (§1) Carrot (Daucus carota) and tobacco (Nicotiana tabacum) calli were supplied by Carolina Biological Supply Company (Burlington, N.C., USA) and kept under sterile conditions in solid callus initiation medium for carrots or for tobacco respectively (also acquired from Carolina Biological). The specific composition thereof is available in the company's catalog. A single callus was split into small fragments and these fragments were weighed under sterile conditions and seeded on fresh medium (solid callus initiation medium acquired from Carolina Biologicals) which contained different concentrations of the synthetic peptide human adrenomedullin (AM) (Phoenix Pharmaceuticals, Burlingame, Calif., USA). After 30 days of growth in the dark, the calli were weighed again and the growth rate was calculated as the quotient of the final weight divided by the initial weight. The dry weight of each sample was calculated by subjecting the calli to an oven drying process at […] for 24 hours.

[2] = system: tobacco (Nicotiana tabacum) calli; experiment: Callus growth (biomass increase) on medium containing adrenomedullin, tobacco
Source text: as §1

Chlorella = experiment: Microalgae growth in culture, absorbance at 680 nm; settings: final concentration of 10^−8 M AM, Guillard F/2 medium, 5% CO2, 12 hours light/12 hours dark
Protocol: Two identical cultures of Chlorella in Guillard F/2 medium [Guillard, R. R. L. 1975. Culture of phytoplankton for feeding marine invertebrates. pp 26-60. In Smith W. L. and Chanley M. H (Eds.) Culture of Marine Invertebrate Animals. Plenum Press, New York, USA.; Guillard, R. R. L. and Ryther, J. H. 1962. Studies of marine planktonic diatoms. I. Cyclotella nana Hustedt and Detonula confervacea Cleve. Can. J. Microbiol. 8: 229-239] (250 ml each) were prepared in two separate glass flasks. Then, 100 μl of said Guillard F/2 medium were added to a flask and 100 μl of said Guillard F/2 medium containing the synthetic peptide human adrenomedullin (AM) (Phoenix Pharmaceuticals, Burlingame, Calif., USA) in a sufficient amount to achieve a final concentration of 10^−8 M to the other flask.
Air containing 5% CO2 was continuously bubbled in the culture. The flasks were illuminated with a photoperiod of 12 hours light/12 hours dark.
Aliquots from the medium were periodically collected in order to assess the microalgae growth. Absorbance was measured at 680 nm with a Perkin Elmer Lambda 35 UV/Visible spectrofotometer.

[3] = different concentrations of AM, 30 days of growth in the dark
[4] = oven drying at 250° C. for 24 hours

human adrenomedullin [AM]
most effective concentration of AM for stimulating cell growth ([1]; 30 days of growth in the dark): 10^−10 M | growth of the calli (growth rate = final weight / initial weight) [1, 3]: growth increase in the calli following a dose-dependent response | increase in the biomass when compared with the control ([1]; optimal dose of AM, 30 days): 60% | dry weight of the tissue [1, 4]: differences were maintained | most effective concentration of AM for stimulating cell growth ([2]; 30 days of growth in the dark): 10^−10 M | growth of the calli (growth rate = final weight / initial weight) [2, 3]: growth increase in the calli following a dose-dependent response | increase in the biomass when compared with the control ([2]; optimal dose of AM, 30 days): 60% | dry weight of the tissue [2, 4]: differences were maintained | microalgae growth (absorbance at 680 nm) (Chlorella): grow up faster and reach the stationary phase sooner than the non-treated microalgae
